Measured values: patent US9204640B2, “2-acyloxy-pyrrolin-4-ones” (BAYER INTELLECTUAL PROPERTY GMBH, priority 2011, dated 2015)

Key:
Assay type in all cases: in vivo
[1] = system: Phaedon cochleariae; test: Phaedon test (PHAECO spray treatment); conditions: application rate 500 g/ha, after 7 days, Chinese cabbage leaf discs
In short: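 Chinese cabbage (Brassica pekinensis) leaf discs sprayed with compound diluted in emulsifier-containing water to the desired concentration, then infested with mustard beetle larvae once dry. Mortality in % scored after 7 days or after the desired period (100% = all larvae dead, 0% = none dead).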

[2] = system: Tetranychus urticae; test: Tetranychus test (TETRUR spray treatment; OP-resistant in Example 10); conditions: application rate 100 g/ha, after 5 days, bean leaf discs
In short: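 Bean leaf discs (Phaseolus vulgaris) infested with all stages of Tetranychus urticae sprayed with compound diluted in emulsifier-containing water. In the standard test, % kill scored after 5 days. The OP-resistant strain test uses the same method with scoring after a set period; 100% = all mites dead, 0% = none.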

[3] = system: Myzus persicae; test: Myzus persicae test (MYZUPE Tau), leaf dipping; conditions: 20 ppm, 6dat
Description: Myzus Persicae Test (MYZUPE Tau) To produce a suitable preparation of active compound, 1 part by weight of active compound is mixed with the stated amount of solvent and emulsifier, and the concentrate is diluted with emulsifier-containing water to the desired concentration. Cabbage leaves (Brassica oleracea) which are heavily infested by the green peach aphid (Myzus persicae) are treated by dipping into the active compound preparation of the desired concentration. After the desired period of time, the kill in % is determined. 100% means that all of the aphids have been killed; 0% means that none of the aphids have been killed.

[4] = system: Myzus persicae; test: Myzus persicae test; hydroponic treatment (MYZUPE Sys); conditions: 20 ppm, 6dat
Description: Myzus Persicae Test; Hydroponic Treatment (MYZUPE Sys)
To produce a suitable preparation of active compound, 1 part by weight of active compound is mixed with the stated amounts of solvent and emulsifier, and the concentrate is diluted with water to the desired concentration.
The active compound preparation is mixed with water. The stated concentration refers to the amount of active compound per volume unit of water (mg/l=ppm). The treated water is filled into vessels containing a pea plant (Pisum sativum), and the plant is the infested with the green peach aphid (Myzus persicae).
After the desired period of time, the kill in % is determined 100% means that all of the aphids have been killed; 0% means that none of the aphids have been killed.

[5] = system: Setaria viridis; test: Herbicidal pre-emergence action, SETVI; conditions: 20 g/ha
From the text: 1. Herbicidal Pre-Emergence Action
• Seeds of monocotyledonous and dicotyledonous weed plants and crop plants are placed in wood-fiber pots in sandy loam and covered with soil. The test compounds, formulated in the form of wettable powders (WP), are then, as an aqueous suspension with a water application rate of 600 l/ha (converted), with 0.2% of wetting agent added, applied at various dosages to the surface of the covering soil. • After the treatment, the pots are placed in a greenhouse and kept under good growth conditions for the test plants. The visual assessment of the damage to the test plants is carried out after a trial period of about 3 weeks by comparison with untreated controls (herbicidal activity in percent: 100% activity=the plants have died, 0% activity=like control plants). • In addition to the compounds mentioned above, the following compounds show an activity of 90-100% against Alopecurus myosuroides, Digitaria sanguinalis, Echinocloa crus-galli, Lolium multiflorum, Setaria viridis and Sorghum halapense when applied by the pre-emergence method at 320 g/ha of a.i.: I-a-2, I-a-10, I-a-11, I-a-12.
1. Herbicidal Pre-Emergence Action (Pre)
• Seeds of monocotyledonous and dicotyledonous weed plants and crop plants are placed in wood-fiber pots in sandy loam and covered with soil. The test compounds, formulated in the form of wettable powders (WP) or emulsion concentrates (EC), are then, as an aqueous suspension with a water application rate of 600-800 l/ha (converted), with 0.1-0.2% of wetting agent added, applied at various dosages to the surface of the covering soil. • After the treatment, the pots are placed in a greenhouse and kept under good growth conditions for the test plants. […] Herbicidal Post-Emergence Action (Post) • Seeds of monocotyledonous and dicotyledonous weed and crop plants are placed in sandy loam in wood-fiber pots, covered with soil and cultivated in a greenhouse under good growth conditions. 2-3 weeks (stages 10-13 according to the BBCH scale) after sowing, the test plants are treated at a height of 5-10 cm. The test compounds, formulated as wettable powders (WP) or emulsion concentrates (EC), are then, with a water application rate of 600-800 l/ha (converted), with 0.1-0.2% of wetting agent added, sprayed at various dosages onto the green parts of the plants.
AVEFA: Avena fatua LOLMU: Lolium multiflorum SETVI: Setaria viridis CHEAL: Chenopodium album VIOTR: Viola tricolor VERPE: Veronica persica ORYSA: Oryza sativa TRZAS: Triticum aestivum ZEAMX: Zea mays ALOMY: Alopecurus myosuroides DIGSA: Digitaria sanguinalis ECHCG: Echinocloa crus-galli SORHA: Sorghum halepense AVESA: Avena sativa AMARE: Amaranthus retroflexus SINAL: Sinapis alba STEME: Stellaria media

CCOC(=O)OC1=C(c2c(C)cc(I)cc2CC)C(=O)C2(CCC(OC)CC2)N1 (mixture of isomers) [I-b-2]
effect in % (beetle larvae killed) [1]: 83%
effect in % (spider mites killed) [2]: 80%
% Activity MYZUPE tau [3]: 90%
% Activity MYZUPE sys [4]: 99%
% Activity SETVI [5]: 70%
